# Experimental data taken from article PMC6199744, “Development of Chemical Proteomics for the Folateome and Analysis of the Kinetoplastid Folateome” (ACS Infectious Diseases, 2018).
# Read-outs that look alike come from different tables or passages of the source.
# Legend:
# Assay type in all cases: binding
# [1] = target: T1, HeLa cell extract proteins (Homo sapiens, UniProt Q9H2U2)
# T1 construct: endogenous in cells; host or cells: HeLa cell extract
# T1 sequence (Q9H2U2 33-334): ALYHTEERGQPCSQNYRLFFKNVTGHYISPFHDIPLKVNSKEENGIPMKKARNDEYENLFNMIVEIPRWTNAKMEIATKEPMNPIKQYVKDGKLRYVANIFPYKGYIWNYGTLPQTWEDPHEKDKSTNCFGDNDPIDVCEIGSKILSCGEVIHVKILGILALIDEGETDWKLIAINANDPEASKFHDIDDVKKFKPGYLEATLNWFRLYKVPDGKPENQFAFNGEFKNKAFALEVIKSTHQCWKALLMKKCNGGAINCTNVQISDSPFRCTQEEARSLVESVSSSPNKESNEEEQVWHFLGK
# [2] = target: T2, HeLa cell extract proteins (Homo sapiens, UniProt P48643)
# T2 construct: endogenous in cells; host or cells: HeLa cell extract
# [3] = target: T3, HeLa cell extract proteins (Homo sapiens, UniProt P32929)
# T3 construct: endogenous in cells; host or cells: HeLa cell extract
# [4] = target: T4, HeLa cell extract proteins (Homo sapiens, UniProt Q9NYU2)
# T4 construct: endogenous in cells; host or cells: HeLa cell extract
# [5] = target: T5, HeLa cell extract proteins (Homo sapiens, UniProt P31040)
# T5 construct: endogenous in cells; host or cells: HeLa cell extract
# [6] = target: T6, HeLa cell extract proteins (Homo sapiens, UniProt Q14204)
# T6 construct: endogenous in cells; host or cells: HeLa cell extract
# [7] = target: T7, HeLa cell extract proteins (Homo sapiens, UniProt P12956)
# T7 construct: endogenous in cells; host or cells: HeLa cell extract
# [8] = target: T8, HeLa cell extract proteins (Homo sapiens, UniProt P35080)
# T8 construct: endogenous in cells; host or cells: HeLa cell extract
# T8 sequence (P35080 1-140): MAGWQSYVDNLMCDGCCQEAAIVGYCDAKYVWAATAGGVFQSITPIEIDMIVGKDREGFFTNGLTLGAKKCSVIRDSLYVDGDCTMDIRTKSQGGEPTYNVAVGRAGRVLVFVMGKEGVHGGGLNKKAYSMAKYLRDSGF
# [9] = target: T9, HeLa cell extract proteins (Homo sapiens, UniProt Q15029)
# T9 construct: endogenous in cells; host or cells: HeLa cell extract
# T9 sequence (Q15029 1-972): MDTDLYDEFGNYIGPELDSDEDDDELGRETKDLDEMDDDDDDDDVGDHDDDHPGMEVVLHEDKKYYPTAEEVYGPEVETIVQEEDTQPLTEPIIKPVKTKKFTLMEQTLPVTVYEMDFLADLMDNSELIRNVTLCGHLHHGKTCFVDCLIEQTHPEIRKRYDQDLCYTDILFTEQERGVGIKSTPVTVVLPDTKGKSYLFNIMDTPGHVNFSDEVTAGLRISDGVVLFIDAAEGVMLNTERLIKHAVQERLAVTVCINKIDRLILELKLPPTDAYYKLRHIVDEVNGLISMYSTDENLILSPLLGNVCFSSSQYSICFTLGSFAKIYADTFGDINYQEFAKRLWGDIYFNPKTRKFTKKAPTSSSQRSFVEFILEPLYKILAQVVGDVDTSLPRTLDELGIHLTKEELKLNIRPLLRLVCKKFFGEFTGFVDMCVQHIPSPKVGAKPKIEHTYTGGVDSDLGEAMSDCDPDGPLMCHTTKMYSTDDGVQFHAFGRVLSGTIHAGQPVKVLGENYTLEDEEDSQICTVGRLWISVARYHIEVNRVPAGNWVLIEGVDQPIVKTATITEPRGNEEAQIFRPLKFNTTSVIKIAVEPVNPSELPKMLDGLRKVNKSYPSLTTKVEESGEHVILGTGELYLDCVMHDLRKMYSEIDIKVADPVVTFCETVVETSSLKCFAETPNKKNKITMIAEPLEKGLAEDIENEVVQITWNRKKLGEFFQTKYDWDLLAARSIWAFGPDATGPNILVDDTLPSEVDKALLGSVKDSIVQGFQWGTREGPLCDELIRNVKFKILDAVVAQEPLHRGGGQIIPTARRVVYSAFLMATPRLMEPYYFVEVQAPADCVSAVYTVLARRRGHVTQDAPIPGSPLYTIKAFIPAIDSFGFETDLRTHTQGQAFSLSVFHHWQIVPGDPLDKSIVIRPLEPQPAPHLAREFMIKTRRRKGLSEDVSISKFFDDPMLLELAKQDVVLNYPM
# [10] = target: T10, HeLa cell extract proteins (Homo sapiens, UniProt O00148)
# T10 construct: endogenous in cells; host or cells: HeLa cell extract
# [11] = target: T11, HeLa cell extract proteins (Homo sapiens, UniProt P00403)
# T11 construct: endogenous in cells; host or cells: HeLa cell extract
# [12] = HeLa, protein CCT5 (T-COMPLEX PROTEIN 1 SUBUNIT EPSILON.)
# [13] = HeLa, protein DDX39 (CDNA FLJ55484, HIGHLY SIMILAR TO ATP-DEPENDENT RNA HELICASE DDX39.)
# T4 sequence (Q9NYU2 43-1555): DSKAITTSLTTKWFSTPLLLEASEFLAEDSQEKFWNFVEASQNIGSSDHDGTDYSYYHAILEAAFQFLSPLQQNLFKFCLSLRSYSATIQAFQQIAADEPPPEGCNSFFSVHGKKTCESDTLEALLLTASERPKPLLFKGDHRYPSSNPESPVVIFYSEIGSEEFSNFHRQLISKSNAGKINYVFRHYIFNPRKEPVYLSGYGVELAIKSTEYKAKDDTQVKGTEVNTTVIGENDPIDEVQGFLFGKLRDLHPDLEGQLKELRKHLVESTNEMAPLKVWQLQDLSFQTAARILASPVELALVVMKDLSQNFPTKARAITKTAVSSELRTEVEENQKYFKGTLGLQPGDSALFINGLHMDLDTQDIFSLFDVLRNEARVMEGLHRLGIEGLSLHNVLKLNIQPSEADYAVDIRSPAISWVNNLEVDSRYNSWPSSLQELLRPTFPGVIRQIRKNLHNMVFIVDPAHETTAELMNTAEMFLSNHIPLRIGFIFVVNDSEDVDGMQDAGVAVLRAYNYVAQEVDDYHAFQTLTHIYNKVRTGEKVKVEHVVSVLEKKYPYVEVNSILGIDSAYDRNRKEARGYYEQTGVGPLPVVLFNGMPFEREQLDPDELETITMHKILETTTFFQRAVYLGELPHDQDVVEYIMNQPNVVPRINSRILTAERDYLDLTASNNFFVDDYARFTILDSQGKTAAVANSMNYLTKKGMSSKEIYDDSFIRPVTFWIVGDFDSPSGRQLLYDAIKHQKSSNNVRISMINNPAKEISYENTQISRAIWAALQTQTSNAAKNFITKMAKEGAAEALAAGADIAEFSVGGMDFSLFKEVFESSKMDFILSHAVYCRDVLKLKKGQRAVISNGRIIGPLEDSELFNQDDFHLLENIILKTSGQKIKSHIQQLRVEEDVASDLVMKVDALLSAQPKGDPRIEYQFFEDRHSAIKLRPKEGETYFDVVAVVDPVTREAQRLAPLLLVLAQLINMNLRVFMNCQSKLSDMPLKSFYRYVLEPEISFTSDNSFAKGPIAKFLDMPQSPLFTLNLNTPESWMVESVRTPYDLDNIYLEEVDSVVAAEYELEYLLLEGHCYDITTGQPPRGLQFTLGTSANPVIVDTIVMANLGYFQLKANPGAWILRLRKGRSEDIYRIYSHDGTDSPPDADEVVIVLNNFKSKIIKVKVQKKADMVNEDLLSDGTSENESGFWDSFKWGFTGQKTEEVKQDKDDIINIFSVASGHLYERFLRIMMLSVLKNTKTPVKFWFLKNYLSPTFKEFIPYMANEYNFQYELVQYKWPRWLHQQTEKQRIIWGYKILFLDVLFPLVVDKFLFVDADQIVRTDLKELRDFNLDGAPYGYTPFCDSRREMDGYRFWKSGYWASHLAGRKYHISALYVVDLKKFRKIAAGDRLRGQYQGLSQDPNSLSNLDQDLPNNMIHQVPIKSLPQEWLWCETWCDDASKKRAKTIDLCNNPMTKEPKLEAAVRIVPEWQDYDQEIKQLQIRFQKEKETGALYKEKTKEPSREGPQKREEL
# T11 sequence (P00403 whole entry): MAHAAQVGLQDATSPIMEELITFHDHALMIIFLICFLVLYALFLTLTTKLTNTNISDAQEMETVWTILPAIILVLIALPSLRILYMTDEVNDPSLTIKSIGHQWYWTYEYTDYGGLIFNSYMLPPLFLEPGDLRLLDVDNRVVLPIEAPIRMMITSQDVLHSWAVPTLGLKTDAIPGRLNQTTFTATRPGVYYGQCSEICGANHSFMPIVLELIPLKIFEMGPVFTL
# T10 sequence (O00148 whole entry): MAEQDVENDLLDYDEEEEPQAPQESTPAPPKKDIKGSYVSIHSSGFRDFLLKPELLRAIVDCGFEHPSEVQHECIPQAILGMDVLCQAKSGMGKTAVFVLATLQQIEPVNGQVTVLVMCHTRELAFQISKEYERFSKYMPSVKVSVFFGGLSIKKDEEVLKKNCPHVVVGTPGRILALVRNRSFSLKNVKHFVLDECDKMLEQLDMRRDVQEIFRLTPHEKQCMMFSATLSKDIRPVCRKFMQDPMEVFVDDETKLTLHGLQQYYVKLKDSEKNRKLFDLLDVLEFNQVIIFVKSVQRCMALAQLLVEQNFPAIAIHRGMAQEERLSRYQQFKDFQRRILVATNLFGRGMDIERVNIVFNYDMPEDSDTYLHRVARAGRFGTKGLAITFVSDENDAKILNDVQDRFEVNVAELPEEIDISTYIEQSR
# T3 sequence (P32929 whole entry): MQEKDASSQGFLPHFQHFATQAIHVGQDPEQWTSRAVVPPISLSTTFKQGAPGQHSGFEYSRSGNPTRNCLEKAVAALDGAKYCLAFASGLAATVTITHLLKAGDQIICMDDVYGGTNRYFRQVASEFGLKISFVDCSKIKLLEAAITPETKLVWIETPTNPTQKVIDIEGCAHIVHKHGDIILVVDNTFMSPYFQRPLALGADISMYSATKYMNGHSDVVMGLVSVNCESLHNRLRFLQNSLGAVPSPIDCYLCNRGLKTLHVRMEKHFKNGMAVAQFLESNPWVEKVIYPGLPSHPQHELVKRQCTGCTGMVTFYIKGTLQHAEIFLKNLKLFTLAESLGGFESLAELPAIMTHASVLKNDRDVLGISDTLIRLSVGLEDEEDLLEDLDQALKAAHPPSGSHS
# T5 sequence (P31040 43-664): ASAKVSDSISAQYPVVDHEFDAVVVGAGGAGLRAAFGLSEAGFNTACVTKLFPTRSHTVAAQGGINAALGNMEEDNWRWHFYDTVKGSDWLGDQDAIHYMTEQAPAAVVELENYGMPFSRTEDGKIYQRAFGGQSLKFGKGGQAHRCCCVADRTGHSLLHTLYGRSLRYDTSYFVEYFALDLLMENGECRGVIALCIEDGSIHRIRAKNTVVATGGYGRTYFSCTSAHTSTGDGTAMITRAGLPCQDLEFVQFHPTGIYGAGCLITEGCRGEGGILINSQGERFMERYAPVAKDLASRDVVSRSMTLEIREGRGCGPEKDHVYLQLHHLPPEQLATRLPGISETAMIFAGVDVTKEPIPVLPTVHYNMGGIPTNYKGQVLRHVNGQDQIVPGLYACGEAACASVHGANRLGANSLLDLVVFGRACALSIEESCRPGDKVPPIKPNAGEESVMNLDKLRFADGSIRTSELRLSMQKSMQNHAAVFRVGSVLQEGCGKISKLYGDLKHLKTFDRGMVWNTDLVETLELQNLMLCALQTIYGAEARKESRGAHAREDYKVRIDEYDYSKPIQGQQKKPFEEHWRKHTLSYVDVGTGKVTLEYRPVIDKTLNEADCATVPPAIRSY
# T7 sequence (P12956 whole entry): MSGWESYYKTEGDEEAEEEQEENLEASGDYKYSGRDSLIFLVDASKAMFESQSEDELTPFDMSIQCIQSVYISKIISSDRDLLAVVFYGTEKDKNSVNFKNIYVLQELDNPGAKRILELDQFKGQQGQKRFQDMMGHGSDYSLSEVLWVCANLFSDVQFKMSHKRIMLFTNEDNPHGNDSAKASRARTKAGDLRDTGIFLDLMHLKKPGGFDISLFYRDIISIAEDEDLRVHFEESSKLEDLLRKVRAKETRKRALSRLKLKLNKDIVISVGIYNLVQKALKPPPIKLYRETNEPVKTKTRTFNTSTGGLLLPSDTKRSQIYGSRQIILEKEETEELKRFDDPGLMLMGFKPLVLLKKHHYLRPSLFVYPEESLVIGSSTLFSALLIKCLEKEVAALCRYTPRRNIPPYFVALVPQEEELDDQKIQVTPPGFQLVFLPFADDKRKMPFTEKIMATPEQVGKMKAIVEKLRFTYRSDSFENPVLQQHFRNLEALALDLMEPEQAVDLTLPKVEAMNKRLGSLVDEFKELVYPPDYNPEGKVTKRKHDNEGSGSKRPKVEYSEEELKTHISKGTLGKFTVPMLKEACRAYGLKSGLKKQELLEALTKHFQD
# T2 sequence (P48643 whole entry): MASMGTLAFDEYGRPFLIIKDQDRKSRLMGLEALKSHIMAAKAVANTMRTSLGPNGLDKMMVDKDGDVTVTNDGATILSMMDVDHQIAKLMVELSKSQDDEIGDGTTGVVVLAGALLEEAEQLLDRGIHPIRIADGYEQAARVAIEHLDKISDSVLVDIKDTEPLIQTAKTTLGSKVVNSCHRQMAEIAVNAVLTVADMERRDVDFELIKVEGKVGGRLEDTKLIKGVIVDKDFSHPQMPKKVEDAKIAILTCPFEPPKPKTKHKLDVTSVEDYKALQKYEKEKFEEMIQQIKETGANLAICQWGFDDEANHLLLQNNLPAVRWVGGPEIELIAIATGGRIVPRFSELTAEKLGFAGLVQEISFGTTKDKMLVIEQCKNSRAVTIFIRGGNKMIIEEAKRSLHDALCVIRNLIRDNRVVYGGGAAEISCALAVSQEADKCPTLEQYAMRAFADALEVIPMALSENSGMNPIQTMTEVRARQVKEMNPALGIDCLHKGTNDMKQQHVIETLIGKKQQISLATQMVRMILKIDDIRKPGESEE
Structure (SMILES),"fold changes relative to vehicle control ([1]; protein PPA2, HeLa)","fold changes relative to vehicle control [2, 12] [fold]","fold changes relative to vehicle control ([3]; protein CTH, HeLa)","fold changes relative to vehicle control ([4]; protein UGCGL1, HeLa)","fold changes relative to vehicle control ([5]; protein SDHA, HeLa)","fold changes relative to vehicle control ([6]; protein DYNC1H1, HeLa)","fold changes relative to vehicle control ([7]; protein XRCC6, HeLa)","fold changes relative to vehicle control ([8]; protein PFN2, HeLa)","fold changes relative to vehicle control ([9]; protein EFTUD2, HeLa)","fold changes relative to vehicle control [10, 13] [fold]","fold changes relative to vehicle control ([11]; captured protein COX2, HeLa)","fold changes relative to vehicle control ([1]; HeLa, protein PPA2)","fold changes relative to vehicle control ([2]; HeLa, protein CCT5)","fold changes relative to vehicle control ([4]; HeLa, protein UGCGL1)","fold changes relative to vehicle control ([5]; HeLa, captured protein SDHA)","fold changes relative to vehicle control ([6]; HeLa, captured protein DYNC1H1)","fold changes relative to vehicle control ([7]; HeLa, protein XRCC6)","fold changes relative to vehicle control ([8]; HeLa, protein PFN2)","fold changes relative to vehicle control ([9]; HeLa, protein EFTUD2)","fold changes relative to vehicle control ([10]; HeLa, protein DDX39)",also measured
CCCCCCOc1cccc(Cc2cnc(N)nc2N)c1 [compound 2],1.59,1.97,1.43,1.22,1.2,1.03,1.93,0.99,1.4,2.4,0.95,,,,,,,,,,
NCCOCCOCC(=O)Nc1nc2ncc(CNc3ccc(C(=O)NC(CCC(=O)O)C(=O)O)cc3)nc2c(=O)[nH]1 (centres unmarked) [compound 6],,,0.95,,,,,,,,,1.24,1.29,1.01,1.06,1.11,1.09,1.06,1.04,1.17,"fold changes relative to vehicle control ([11]; protein COX2, HeLa): 1.33"
CCCCCCOc1ccc(Cc2cnc(N)nc2N)cc1 [compound 1],1.04,1.41,0.86,0.99,1.19,1,1.13,1.23,1.11,1.22,0.99,,,,,,,,,,
"Nc1nc2c(c(=O)[nH]1)N(C=O)C(CNc1ccc(C(=O)N[C@@H](CCC(=O)O)C(=O)O)cc1)CN2 (some centres unmarked) [LEU, leucovorin]",,,0.82,,,,,,,,,1.16,1.05,1.09,1,1.02,0.96,1.07,0.97,1.07,"fold changes relative to vehicle control ([11]; protein COX2, HeLa): 1.05"
NCCCNc1ccc(C(=O)NC(CCC(=O)O)C(=O)O)cc1 (centres unmarked) [compound 7],,,0.87,,,,,,,,,1.02,1.03,1.05,0.92,1.1,0.92,1.15,0.91,0.88,"fold changes relative to vehicle control ([11]; protein COX2, HeLa): 1.27"
"Nc1nc2[nH]cc(CCc3ccc(C(=O)N[C@@H](CCC(=O)O)C(=O)O)cc3)c2c(=O)[nH]1 [PTX, pemetrexed]",,,,,,,,,,,,,,,,,,,,,fold changes relative to vehicle control [1]: 1.05; fold changes relative to vehicle control [2]: 1.13; fold changes relative to vehicle control [3]: 0.85; fold changes relative to vehicle control [4]: 1.02; fold changes relative to vehicle control [5]: 0.97; fold changes relative to vehicle control [6]: 0.99; fold changes relative to vehicle control [7]: 1.02; fold changes relative to vehicle control [8]: 1.01; fold changes relative to vehicle control [9]: 0.9; fold changes relative to vehicle control [10]: 0.99; fold changes relative to vehicle control [11]: 1.24
Nc1nc2cccc(-c3ccccc3)c2n1Cc1ccc(Cl)c(Cl)c1 [compound 3],0.97,1.18,0.91,1.05,1.02,1.07,0.92,1.1,0.99,0.86,1.14,,,,,,,,,,
